Measured values from patent publication US4080466A, “Pharmaceutical compositions containing 4-hydroxyl-1,3-dithiolan-2-ylidene malonates” (Nihon Nohyaku Co., Ltd., priority 1976, dated 1978).

How the values were obtained:
[1] = test system: acute hepatitis induced by D-galactosamine; assay: Protective Effect on Acute Hepatitis associated with Mesenchymal Reaction and Discrete Lobular Necrosis (D-galactosamine); type: in vivo, rat (SD strain); conditions: 100 mg/kg oral, 6 h before D-galactosamine 600 mg/kg i.p. (+ 300 mg/kg)
Protocol: D-Galactosamine is a compound which induces a discrete lobular necrosis associated with mesenchymal reaction similar to the change observed in human viral hepatitis, so that it is frequently used in producing a model for viral hepatitis.
The compound of this invention or anethol trithion was administered orally to the male rat (SD strain) at the dose of 100 mg/kg. Six hours after it, D-galactosamine was intraperitoneally administered at the dose of 600 mg/kg. Four hours after it, an additional 300 mg/kg was administered intraperitoneally. Eight hours after it, the animals were sacrificed to collect the blood samples. P-GPT activity and triglyceride in the liver were measured to evaluate the effect of the compound of this invention.

[2] = test system: excretion of biliary salt; assay: Cholagogic Action: effect on the excretion of biliary salt; type: in vivo, rats (SD-JCL strain); conditions: 200 mg/kg oral, before treatment = 100
Protocol: (§1) Drugs as choleresis are used for patients to improve bile flow. In the present example, the effect of the compound of the invention on the quantities of bile and biliary salt is investigated. Methods:
(§2) The male rats (4 week-aged, SD-JCL strain) were anesthetized with sodium pentobarbital (37.5 mg/kg, intraperitoneal injection). The abdominal cavity was opened through a midline incision. The common bile duct was catheterized with polyethylene tube o.d. 0.8 mm. The catheter was brought to the outside through the abdominal incision would prior to closing. Bile was collected from the catheter continuously with time intervals of one hour. The quantity of bile produced in one hour was determined by weighing and that of biliary salt was determined by enzymatic method (Ikagaku Jikkenho Koza 1B, Biological Constituents II, edited by Tamio YAMAKAWA). The amount of biliary salt was represented in the term of cholic acid equivalent.
(§3) In the representation of the results, the quantities of bile and biliary salt produced in one hour prior to the administration of drug were taken as 100. The compound of this invention was orally administered at the dose of 200 mg/kg. As reference, anethol trithion was used.

bile flow = assay: Cholagogic Action: effect on bile flow; type: in vivo, rats (SD-JCL strain); conditions: 200 mg/kg oral; for Bile flow: before treatment = 100
Protocol: as §1, §2, §3

[3] = test system: acute liver damage induced by carbon tetrachloride; assay: Protective Effect on Acute Liver Damage associated with Centrilobular Necrosis (carbon tetrachloride); type: in vivo, mice (dd-strain); conditions: 250 mg/kg oral, average of 5 to 6 mice; for Liver damage index: 6 h before CCl4 (0.05 ml/kg oral), score 0 Normal, 2 slight, 4 clear, 6 heavy damage; for p-GPT (plasma glutamic-pyruvic transaminase activity): 6 h before CCl4, 24 h after CCl4, values over 1,000 regarded as 1,000
Text: Carbon tetrachloride (CCl4) administration induces centrilobular necrosis of the liver associated with loss of diphosphopyridine nucleotide, hepatic glycogen, coenzyme A and increase in neutral fat. Release of several enzymes from the hepatocytes, and increase of enzyme activities in the plasma are recognized as the result of the damage of the liver. A suitable means for evaluating the degree of damage induced by CCl4 or the degree of protection afforded by drugs is to study the plasma glutamic-pyruvic transminase (p-GPT) activity.
Methods: The test compounds were dissolved or suspended in olive oil and administered orally at the dose of 250 mg/kg to the mice (Four-week-old male mice-dd strain). After 6 hours, CCl4 was administered orally (0.05 ml/kg as olive oil solution). Animals were killed 24 hours after CCl4 administration, and the liver was grossly observed. The plasma was obtained by centrifugation. Activities of p-GPT were determined by the method of Reitman and Frankel and expressed in Karmen units.
Score for liver damage index was as follows:
4 Clearly observable damage
Each figure indicates average of 5 to 6 mice. Values of p-GPT over 1,000 Karmen unit regarded as 1,000 for calculation of average for convenience.

[4] = test system: acute liver damage induced by allyl alcohol; assay: Protective Effect on Acute Liver Damage associated with Periportal Necrosis (allyl alcohol), BSP test; type: in vivo, mouse (dd-strain); conditions: 100 mg/kg oral, 6 h before allyl alcohol (0.075 mg/kg oral); 24 h
Protocol: The compund of this invention or anethol trithion was orally administered to the male mouse (4 week-old, dd-strain) at the dose of 100 mg/kg. Six hours after it, allyl alcohol was orally administered at the dose of 0.075 mg/kg. Twenty four hours after it, the animals were sacrificed to collect blood samples.

[5] = test system: chronic liver damage induced by thioacetamide; assay: Therapeutic Effect on Chronic Liver Damage (thioacetamide), BSP test; type: in vivo, rats (Spraque Dawley strain); conditions: normal diet + 0.2% of compound after 12 times TAA 100 mg/kg
Protocol: In the tests of this Example, TAA was repeatedly administered to animals to prepare test animals suffering from somewhat chronic liver damages, and then the present compounds were administered thereto to know whether or not the compounds were effective against chronic hepatitis.
The degree of the liver damage and the therapeutic effects of the compounds were evaluated according to BSP test. The BSP test is a method in which BSP (sulfobromophthalein sodium), a dye known to be quickly metabolized in and excreted from the liver, is intravenously injected into animals and, after a definite period of time, the blood is taken out to measure the amount of BSP remaining in the plasma. In case the animals are suffering from the lever damage, the dye will remain, according to the degree of the damage, at the stage where a major portion of BSP metabolized and excreted in the case of normal animals.
Five groups of rats (Spraque Dawley strain) were treated as follows:
Group A: The rats were orally administered with 100 mg/kg of thioacetamide,at 3 days intervals for 36 days (12 times of the administration), then were submitted for 10 days to a normal diet.
Group B: The rats were orally administered with 100 mg/kg of thioacetamide at 3 days intervals for 36 days (12 times of the administration), then were submitted for 10 days to the normal diet + 0.2% of compound 4.
Group C: The rats were orally administered with 100 mg/kg of thioacetamide at 3 days intervals for 36 days (12 times of the administration), then were submitted for 10 days to the normal diet + 0.2% of compound 2.
Group D: The rats were orally administered with 100 mg/kg of thioacetamide at 3 days intervals for 36 days (12 times of the administration), then were submitted for 10 days to the normal diet + 0.2% of anethol trithion.
Group E: The rats were submitted to the normal diet as the control.
Five rats were sacrificed from each group at appropriate intervals for BSP (sulfobromophthalein) test, the results of which were shown as amounts (mg) of BSP remaining in 1 dl of plasma.

[6] = test system: fatty liver induced by ethionine; assay: Effect on Fatty Liver (ethionine); type: in vivo, mouse (dd-strain); conditions: 24 h, 10 animals
Text: But, the fatty liver is grouped into a couple of patterns from the mechanism of lipid accumulation or metabolism of lipoprotein in the liver. Ethionine is a typical example which induces first pattern of fatty liver. It inhibits RNA and protein synthesis and destructs polysome of the liver cell. Fatty liver is induced by inhibition of the protein synthesis and disturbance of lipoprotein secretion.
Usually, fatty liver is closely related to the accumulation of triglyceride in the liver. In the present example, the degree of fatty liver and protective or therapeutic effect against the fatty liver was evaluated by measurement of triglyceride content in the liver. Methods:
The compounds of this invention and methionine were independently dissolved or suspended into olive oil and administered orally to 4 week-old male mouse (dd-strain) at the dose of 250 mg/kg. One hour before it, simultaneously to it, or one hour after it, ethionine dissolved in equimolar NaOH solution was administered intraperitoneally at the dose of 200 mg/kg. Twenty four hours after the administration of ethionine, the animals were sacrificed and triglyceride content in the liver was determined by chromotropic acid method.

[7] = test system: fatty liver induced by carbon tetrachloride; assay: Therapeutic Effect on Fatty Liver (carbon tetrachloride); type: in vivo, rats (SD strain)
Protocol: Methods: […] The treated animals were left for 3 days after the last administration to maximize the manifestation of fatty liver. […] It was orally given everyday for 10 days at the dose of 50 or 250 mg/kg. On the 11th day, the animals were sacrificed. The therapeutic effect was evaluated by determining the content of liquid in the liver (triglyceride and total lipid) and examining the histopathological changes. Triglyceride and total lipid were determined colorimetrically by chromotropic acid method and Bragdon's oxidation method, respectively. Indices for the histopathological change is as follows: […]

Q: What does the source list for `COc1ccc(-c2cc(=S)ss2)cc1` [Anethol trithion, reference compound]?
A: Triglyceride in liver [1]: 9.2 ± 1.5 mg/g; p-GPT [1]: 106 ± 30 Karmen unit; Excretion of biliary salt ([2]; 1 hour after treatment): 108 ± 12; Excretion of biliary salt ([2]; 2 hours after treatment): 89 ± 11; Excretion of biliary salt ([2]; 3 hours after treatment): 66 ± 3.8; Excretion of biliary salt ([2]; 4 hours after treatment): 47 ± 3.0; Excretion of biliary salt ([2]; 5 hours after treatment): 3.3 ± 4.0; Bile flow (bile flow; 1 hour after treatment): 114 ± 15; Bile flow (bile flow; 2 hours after treatment): 114 ± 15; Bile flow (bile flow; 3 hours after treatment): 102 ± 11; Bile flow (bile flow; 4 hours after treatment): 95 ± 7.7; Quantity of total excreted bile relative to control (bile flow; 5 hours after administration): 1.10 times; Bile flow (bile flow; 5 hours after treatment): 86 ± 6.6; Liver damage index [3]: 1.6; p-GPT (plasma glutamic-pyruvic transaminase activity) [3]: 38 Karmen units; BSP (residual quantity) [4]: 19.3 ± 4.6; BSP remaining in plasma ([5]; 2 days): 9.7 ± 4.1 mg/dL; BSP remaining in plasma ([5]; 5 days): 7.3 ± 3.4 mg/dL; BSP remaining in plasma ([5]; 10 days): 0.9 ± 0.1 mg/dL

Q: `ClC(Cl)(Cl)Cl` [Carbon tetrachloride, reference compound] was tested. Which Liver damage index [3] did it give?
A: Its Liver damage index is 5.2.

Q: What about the “p-GPT (plasma glutamic-pyruvic transaminase activity)” value [3] of the same molecule?
A: The value was > 1,000 Karmen units.

Q: How did the Liver damage index [3] turn out when `CC(C)COC(=O)C(C(=O)OCC(C)C)=C1SCC(O)S1` (centres unmarked) [Compound 3, Diisobutyl 4-hydroxy-1,3-dithiolan-2-ylidene malonate] was run?
A: Its Liver damage index is 0.3.

Q: What about the “p-GPT (plasma glutamic-pyruvic transaminase activity)” value [3] of the same molecule?
A: Its value is 52 Karmen units.

Q: For `CCOC(=O)C(C(=O)OCC)=C1SCC(OC(C)=O)S1` (centres unmarked) [Compound 5, Diethyl 4-acetoxy-1,3-dithiolan-2-ylidene malonate], which Liver damage index [3] is on record?
A: The Liver damage index was 1.2.

Q: And the “p-GPT (plasma glutamic-pyruvic transaminase activity)” value [3]?
A: Its value is 106 Karmen units.

Q: Which Liver damage index [3] does the source give for `CCOC(=O)C(C(=O)OCC)=C1SCC(OC(=O)CC)S1` (centres unmarked) [Compound 6, Diethyl 4-propionyloxy-1,3-dithiolan-2-ylidene malonate] here?
A: The Liver damage index was 1.4.

Q: And the “p-GPT (plasma glutamic-pyruvic transaminase activity)” value [3]?
A: The value was 210 Karmen units.

Q: `CC(=O)OC1CSC(=C(C(=O)OC(C)C)C(=O)OC(C)C)S1` (centres unmarked) [Compound 7, Diisopropyl 4-acetoxy-1,3-dithiolan-2-ylidene malonate] was tested. Which Liver damage index [3] did it give?
A: Its Liver damage index is 0.4.

Q: And the “p-GPT (plasma glutamic-pyruvic transaminase activity)” value [3]?
A: Its value is 80 Karmen units.

Q: Which Liver damage index [3] does the source give for `CCC(=O)OC1CSC(=C(C(=O)OC(C)C)C(=O)OC(C)C)S1` (centres unmarked) [Compound 8, Diisopropyl 4-propionyloxy-1,3-dithiolan-2-ylidene malonate] here?
A: Its Liver damage index is 0.6.

Q: What about the “p-GPT (plasma glutamic-pyruvic transaminase activity)” value [3] of the same molecule?
A: The value was 62 Karmen units.

Q: Which Liver damage index [3] does the source give for `CCCOC(=O)C(C(=O)OCCC)=C1SCC(OC(C)=O)S1` (centres unmarked) [Compound 9, Di-n-propyl-4-acetoxy-1,3-dithiolan-2-ylidene malonate] here?
A: The Liver damage index was 0.8.

Q: And the “p-GPT (plasma glutamic-pyruvic transaminase activity)” value [3]?
A: The value was 102 Karmen units.

Q: How did the Triglyceride ([6]; ethionine alone (positive control), 200 mg/kg i.p.) turn out when `CCSCC[C@H](N)C(=O)O` [Ethionine, reference compound] was run?
A: Its Triglyceride is 15.6 ± 1.34 mg/g-liver.

Q: Which results are given for `CSCC[C@H](N)C(=O)O` [Methionine, reference compound]?
A: Triglyceride ([6]; 250 mg/kg oral, simultaneous with ethionine (0 hr)): 10.8 ± 0.88 mg/g-liver; Total lipid ([7]; 250 mg/kg oral, 10 days): 156.8 ± 23.8 mg/g-liver; Triglyceride ([7]; 250 mg/kg oral, 10 days): 42.7 ± 7.2 mg/g-liver; therapeutic effect on fatty liver (in words) ([7]; 50 or 250 mg/kg oral): hardly exhibited a therapeutic effect; Degree of fatty liver (histopathological examination) ([7]; dose not printed in Table 8, one symbol per animal): ± ± ++ ++ ++ + +

Q: For `NC(=O)CCCCC1CCSS1` (centres unmarked) [Thioctic acid amide, reference compound], which Liver damage index [3] is on record?
A: Its Liver damage index is 4.8.

Q: And the “p-GPT (plasma glutamic-pyruvic transaminase activity)” value [3]?
A: Its value is 763 Karmen units.
